Experiments:
[1] = system: BMI-1; assay: Western blot of BMI-1 levels in PDA cell lines; assay type: cell-based, human; conditions: Aspc1, MiaPaCa-2, Panc1 cells; 0.1 μM or 1.0 μM, 24 hours (FIG. 10a)
Method: Western blotting was carried out on lysates isolated from treated cells. Cells were lysed using RIPA buffer (50 mM Tris, pH 7.4, 150 mM NaCl, 1% Nonidet P-40, 0.1% SDS, 0.5% deoxycholate) supplemented with cOmplete™ EDTA-free Protease Inhibitor Cocktail (Sigma, 11836170001) and Halt™ Phosphatase Inhibitor Cocktail (ThermoFisher, 78420). Lysates were quantified using the Pierce BCA Protein Assay Kit (ThermoFisher, 23227), diluted in SDS sample buffer, resolved by SDS-PAGE (15-30 μg/sample), and transferred onto PVDF membranes. Membranes were blocked with 5% w/v nonfat dry milk in TBS-T (0.1% Tween20) and primary antibodies were incubated overnight at 4° C., diluted in 5% BSA in TBS-T at the indicated concentrations. HRP-conjugated secondary antibodies were incubated in blocking buffer for 1 hour at room temperature before detection using Super Digital-ECL™ substrate solution (Kindle Biosciences, R1002). (FIG. 5b, FIG. 10a and FIG. 11b)
Western Blot Antibodies: • Bmi1: Cell Signaling, #5856, 1:1000 • Vinculin: Cell Signaling, #4650S, 1:1000 • Beta-tubulin: Cell Signaling, #2146S, 1:1000 P-Glycoprotein Substrate Activity Experiment

[2] = system: tubulin; assay: Immunocytochemistry of tubulin and DAPI in Aspc1 cells; assay type: cell-based, human; conditions: 24 hours, relative to vehicle (FIGS. 11c, 11d)
Method: Cells were seeded onto glass coverslips in 12-well plates. Coverslips were prepared by soaking in 1N HCl (60° C., 6 hours), washing in 70% ethanol, and coating with poly-l-lysine (Sigma, P5899) according to manufacturer's instructions. Cells were seeded such that they would be 50% confluent the following day. Cells were then treated with vehicle (DMSO, <0.003%) or 1 μM Compound 1 and incubated for 24 hours. Following treatment, cells were washed with TBS and free tubulin was extracted with Brinkley Buffer 1980 (80 mM PIPES pH 6.8, 1 mM MgCl2, 1 mM EGTA) supplemented with 4 mM EGTA and 0.5% Triton-X (30 seconds). After extraction, cells were fixed for 20 minutes in 4% formaldehyde diluted in Cytoskeleton Buffer (10 mM MES pH 6.1, 138 mM KCl, 3 mM MgCl2, 2 mM EGTA) supplemented with 0.32M sucrose. […]
Confocal imaging was performed using an A1 laser scanning confocal attachment on an Eclipse Ti microscope stand using a 60x/1.49 ApoTIRF oil-immersion objective and standard lasers and filter sets (Nikon Instruments, Melville, N.Y.). […] Images were visualized, analyzed, and prepared for publication using the Fiji distribution of ImageJ (Schindelin J, Arganda-Carreras I, Frise E, et al. Fiji: an open-source platform for biological-image analysis. Nature Methods 2012; 9:676-682). […]

Cc1nc2ccc(F)cc2n1-c1nc(N)c(F)c(Nc2ccc(C(F)(F)F)cc2)n1 [Compound 1, 5-fluoro-2-(6-fluoro-2-methyl-1H-benzo[d]imidazol-1-yl)-N4-[4-(trifluoromethyl)phenyl]pyrimidine-4,6-diamine]
BMI-1 levels relative to vinculin [1]: consistent reduction in BMI-1 protein expression in various cell types
tubulin staining in Aspc1 cells [2]: significant reduction in tubulin formation

From patent publication US12023335B2, “Method for treating pancreatic cancer” (PTC THERAPEUTICS, INC., priority 2018, dated 2024)
